# Where two headings read alike, the source gives them in different places.
# Biological target: T1, F508delCFTR (Homo sapiens, UniProt P13569, DEL508-508)
# T1 construct: expressed in transfected cells; host or cells: CFBE41o- human lung derived epithelial cells (CFBE41o-F508delCFTR-HRP), doxycycline-inducible
# Assay: Cell Surface Expression-Horse Radish Peroxidase (CSE-HRP) Assay;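 on EC50 (with co-corrector): co-corrector chromenyl benzoic acid corrector at 2 or 3 µM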;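 on Maximum % activity (without co-corrector): % of on-plate positive control chromenyl benzoic acid corrector at 2 or 3 µM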
# Type: cell-based
# Details: for Maximum % activity (with co-corrector) / Emax: maximum at any tested concentration; for Emax: read-out: Maximum % activity (without co-corrector)
# Outline: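 Corrector compounds were given as 8-point 3-fold series from 20 or 30 μM, with or without a 2 μM co-corrector, for 18-24 h at 33 °C. Surface HRP was read by luminol luminescence as % of positive control; variable-Hill-slope sigmoidal fitting gave EC50 from triplicate plates.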
# [1] = test compound alone, without co-corrector, read-out: EC50 (without co-corrector)
# [2] = with co-corrector, read-out: EC50 (with co-corrector)
# T1 sequence (P13569 with tags, fused parts or gaps DEL508-508): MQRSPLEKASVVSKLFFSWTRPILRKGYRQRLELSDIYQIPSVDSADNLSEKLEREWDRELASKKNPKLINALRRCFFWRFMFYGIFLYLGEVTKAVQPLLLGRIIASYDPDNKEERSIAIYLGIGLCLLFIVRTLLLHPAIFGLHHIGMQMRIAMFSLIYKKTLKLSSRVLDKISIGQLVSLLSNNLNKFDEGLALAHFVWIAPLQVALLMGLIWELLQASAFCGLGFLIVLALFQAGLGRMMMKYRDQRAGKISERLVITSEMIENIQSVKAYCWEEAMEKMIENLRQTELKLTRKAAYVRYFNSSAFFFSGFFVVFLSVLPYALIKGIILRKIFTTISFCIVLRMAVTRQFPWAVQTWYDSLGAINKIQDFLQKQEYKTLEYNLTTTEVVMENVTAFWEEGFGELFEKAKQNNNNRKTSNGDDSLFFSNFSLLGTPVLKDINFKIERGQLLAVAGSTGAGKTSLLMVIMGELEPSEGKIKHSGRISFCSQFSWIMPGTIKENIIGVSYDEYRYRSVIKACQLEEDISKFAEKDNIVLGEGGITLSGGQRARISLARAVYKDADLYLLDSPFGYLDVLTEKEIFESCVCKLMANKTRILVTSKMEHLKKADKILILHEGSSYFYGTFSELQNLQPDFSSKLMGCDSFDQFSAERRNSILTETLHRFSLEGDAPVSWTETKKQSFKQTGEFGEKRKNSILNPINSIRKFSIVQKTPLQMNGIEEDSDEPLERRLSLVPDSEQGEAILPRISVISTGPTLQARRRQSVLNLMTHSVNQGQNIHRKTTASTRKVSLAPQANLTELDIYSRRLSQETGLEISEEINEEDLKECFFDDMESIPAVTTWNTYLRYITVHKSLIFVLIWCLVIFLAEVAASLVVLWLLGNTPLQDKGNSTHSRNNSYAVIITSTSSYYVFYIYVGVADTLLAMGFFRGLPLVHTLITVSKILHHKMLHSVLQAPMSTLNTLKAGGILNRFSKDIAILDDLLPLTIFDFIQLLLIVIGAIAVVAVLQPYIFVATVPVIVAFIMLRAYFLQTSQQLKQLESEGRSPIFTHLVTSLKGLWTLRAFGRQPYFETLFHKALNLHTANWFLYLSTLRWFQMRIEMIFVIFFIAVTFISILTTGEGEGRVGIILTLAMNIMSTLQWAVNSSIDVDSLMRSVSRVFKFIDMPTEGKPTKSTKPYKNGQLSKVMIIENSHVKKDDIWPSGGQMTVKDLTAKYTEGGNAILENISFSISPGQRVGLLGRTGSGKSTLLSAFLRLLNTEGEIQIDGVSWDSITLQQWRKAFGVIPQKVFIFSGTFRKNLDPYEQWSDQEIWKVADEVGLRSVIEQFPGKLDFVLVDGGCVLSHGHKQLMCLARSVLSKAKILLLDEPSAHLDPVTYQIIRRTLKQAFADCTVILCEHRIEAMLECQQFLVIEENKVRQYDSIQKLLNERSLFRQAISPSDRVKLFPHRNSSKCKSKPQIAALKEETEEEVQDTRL
SMILES,EC50 [1],Maximum % activity (with co-corrector) (with co-corrector),EC50 [2],Emax (without co-corrector)
Cc1ccc(OC(F)F)c(C2(C(=O)NS(=O)(=O)c3cccc4nc(C)ccc34)CC2)c1 [II-101],< 3 µM,+++ (≥350),< 3 µM,> 150%
Cc1ccc2c(S(=O)(=O)NC(=O)C3(c4cc(Cl)ccc4OC(F)F)CC3)cccc2n1 [II-102],3 to 10 µM,+++ (≥350),< 3 µM,> 150%
COC[C@H](C)Oc1ccc(C)cc1C1(C(=O)NS(=O)(=O)c2cccc3nc(C)ccc23)CC1 [II-104],< 3 µM,+++ (≥350),< 3 µM,> 150%
CCOc1ccc(C(C)(C)COC)cc1C1(C(=O)NS(=O)(=O)c2cccc3nc(C)ccc23)CC1 [II-105],< 3 µM,+++ (≥350),< 3 µM,> 150%
CCOC(C)(C)c1ccc(OC(F)F)c(C2(C(=O)NS(=O)(=O)c3cccc4ncccc34)CC2)c1 [II-106],3 to 10 µM,+++ (≥350),3 to 10 µM,> 150%
CCOC(C)(C)c1ccc(OC(F)F)c(C2(C(=O)NS(=O)(=O)c3cccc4nc(C)ccc34)CC2)c1 [II-107],< 3 µM,+++ (≥350),< 3 µM,> 150%
COC(C)(C)c1ccc(OC(F)F)c(C2(C(=O)NS(=O)(=O)c3cccc4ncccc34)CC2)c1 [II-108],3 to 10 µM,+++ (≥350),3 to 10 µM,> 150%
CCOCC(C)(C)c1ccc(OC)c(C2(C(=O)NS(=O)(=O)c3cccc4ncccc34)CC2)c1 [II-110],< 3 µM,+++ (≥350),< 3 µM,> 150%
CCOCC(C)(C)c1ccc(OC)c(C2(C(=O)NS(=O)(=O)c3cccc4nc(C)ccc34)CC2)c1 [II-111],< 3 µM,+++ (≥350),< 3 µM,> 150%
CC(C)COc1ncc(N(C)C)cc1C1(C(=O)NS(=O)(=O)c2cccc3ncccc23)CC1 [II-112],< 3 µM,+++ (≥350),< 3 µM,> 150%
COCC(C)(C)c1ccc(OC)c(C2(C(=O)NS(=O)(=O)c3cccc4nc(C)ccc34)CC2)c1 [II-113],< 3 µM,+++ (≥350),< 3 µM,> 150%
CCc1ccc(O[C@H]2CCOC2)c(C2(C(=O)NS(=O)(=O)c3cccc4nc(C)ccc34)CC2)c1 [II-115],< 3 µM,+++ (≥350),< 3 µM,> 150%
Cc1ccc(O[C@H]2CCOC2)c(C2(C(=O)NS(=O)(=O)c3cccc4ncccc34)CC2)c1 [II-117],3 to 10 µM,+++ (≥350),< 3 µM,> 150%

# Reference: patent US10829473B2, “Modulators of the cystic fibrosis transmembrane conductance regulator protein and methods of use” (AbbVie Overseas S.Á.R.L., priority 2017, dated 2020)
